Measured values from patent publication US6872732B2, “Heterocyclic derivatives and medicinal use thereof” (Kyoto Pharmaceutical Industries, Ltd., priority 2001, dated 2005).
Like-named read-outs stand apart in the source and are kept apart here.

What was measured:
male KK-A^y mice = assay: Decrease of plasma glucose and triglyceride in KK-Ay mice; assay type: in vivo; details: non-fasting, 10 mg/kg/day orally for 4 consecutive days, 24 hours after final administration, vs control group
Description: The test compounds (compounds of Examples 2, 6, 8, 16, 26, 27 and 31) were suspended in 5% gum arabic solution and administered (10 mg/kg/day) orally to the administration group for 4 consecutive days from the next day. The 5% gum arabic solution was orally administered to the control group.

male db/db mice = details: for Decrease (%) in glucose level / Decrease (%) in triglyceride: plasma, 24 hours after final administration
Description: Using db/db mice genetically showing high plasma glucose, hypertriglyceridemia, insulin resistance and obesity, the pharmacological activity of the test compound of Example 6 was examined.
Blood was drawn under a non-fasting state from the tail vein of male db/db mice, the glucose level and triglyceride level of the plasma were measured using commercially available assay kits (glucose CII-test WAKO and triglyceride G-test WAKO, Wako Pure Chemical Industries, Ltd.). The mice were grouped (6 mice per group) into a control group and test compound (compound of Example 6) administration groups (3 and 10 mg/kg/day), such that the mean and standard deviation of the body weight and the plasma glucose and plasma triglyceride levels in each group were nearly the same. The test compound was suspended in 0.5% methylcellulose solution and administered orally for 2 consecutive weeks from the next day. The 0.5% methylcellulose solution was orally administered to the control group. Blood was drawn under a non-fasting state from the tail vein 24 hours after the final administration and the glucose and triglyceride levels of the plasma were measured. The decrease in the plasma glucose and triglyceride levels was calculated from the following formula.

6-week-old male SD rats = details: 30 and 100 mg/kg/day orally, 4 consecutive weeks
Description: Using 6-week-old male SD rats, toxicity by repeat administration was examined.
(§1) The rats were grouped (6 rats per group) into a control group and test compound (compound of Example 6) administration groups (30 and 100 mg/kg/day), such that the mean and the standard deviation of the body weight of the rats were nearly the same. The test compound was suspended in 0.5% methylcellulose solution and administered orally for 4 consecutive weeks from the next day. The 0.5% methylcellulose solution was orally administered to the control group. The rats were fasted for 16 hr from the last day of administration, anesthetized by intraperitoneal administration of pentobarbital sodium (50 mg/kg) 24 hr after the final administration and the blood was drawn. Using EDTA-added blood, hematocrit value and erythrocyte count were measured, and using serum, AST (GOT) and ALT (GPT) were measured. In addition, the total blood volume was calculated. The white fat around the epididymides, and the liver and heart were removed and wet weights thereof were measured.

[1] = tested on: 6-week-old female Wistar rats; details: 30 and 100 mg/kg/day orally, 2 consecutive weeks
Description: Using 6-week-old female Wistar rats, toxicity by repeat administration was examined.
as §1, with “for 2” for “for 4”, “the uterus,” for “the epididymides,”

[2] = 3 and 10 mg/kg/day orally, 2 weeks
[3] = 3 mg/kg/day orally for 2 consecutive weeks
[4] = 10 mg/kg/day orally for 2 consecutive weeks

SMILES: CC(C)(C)N.CC=CC=CC(=O)N1Cc2cc(OCCc3nc(-c4ccc(C(C)C)cc4)oc3C)ccc2C[C@H]1C(=O)O [Example 27, tert-butylamine 2-(2,4-hexadienoyl)-7-{2-[2-(4-isopropylphenyl)-5-methyloxazol-4-yl]ethoxy}-1,2,3,4-tetrahydroisoquinoline-(3S)-carboxylate]
- Decrease (%) in glucose level (male KK-A^y mice): 55.8%
- Decrease (%) in triglyceride (male KK-A^y mice): 73.8%

SMILES: CCCCC=CC(=O)N1Cc2cc(OCCc3nc(-c4ccccc4)oc3C)ccc2C[C@H]1C(=O)O [Example 2, 2-(2-heptenoyl)-7-[2-(5-methyl-2-phenyloxazol-4-yl)ethoxy]-1,2,3,4-tetrahydroisoquinoline-(3S)-carboxylic acid]
- Decrease (%) in glucose level (male KK-A^y mice): 46.8%
- Decrease (%) in triglyceride (male KK-A^y mice): 44.9%

SMILES: CCCC#CC(=O)N1Cc2cc(OCCc3nc(-c4ccccc4)oc3C)ccc2C[C@H]1C(=O)O [Example 8, 2-(2-hexynoyl)-7-[2-(5-methyl-2-phenyloxazol-4-yl)ethoxy]-1,2,3,4-tetrahydroisoquinoline-(3S)-carboxylic acid]
- Decrease (%) in glucose level (male KK-A^y mice): 46.1%
- Decrease (%) in triglyceride (male KK-A^y mice): 55.2%

SMILES: CC(C)(C)N.CC=CC=CC(=O)N1Cc2cc(OCCc3nc(-c4ccc(OCc5ccccc5)cc4)oc3C)ccc2C[C@H]1C(=O)O [Example 26, tert-butylamine 7-{2-[2-(4-benzyloxyphenyl)-5-methyloxazol-4-yl]ethoxy}-2-(2,4-hexadienoyl)-1,2,3,4-tetrahydroisoquinoline-(3S)-carboxylate]
- Decrease (%) in glucose level (male KK-A^y mice): 43.7%
- Decrease (%) in triglyceride (male KK-A^y mice): 67.8%

SMILES: CC(C)(C)N.CC=CC=CC(=O)N1Cc2cc(OCCc3nc(-c4ccc(N(C)C)cc4)oc3C)ccc2C[C@H]1C(=O)O [Example 31, tert-butylamine 7-{2-[2-(4-dimethylaminophenyl)-5-methyloxazol-4-yl]ethoxy}-2-(2,4-hexadienoyl)-1,2,3,4-tetrahydroisoquinoline-(3S)-carboxylate]
- Decrease (%) in glucose level (male KK-A^y mice): 39.4%
- Decrease (%) in triglyceride (male KK-A^y mice): 20.1%

SMILES: CC=CC=CC(=O)N1Cc2cc(OCCc3nc(-c4ccccc4)oc3C)ccc2C[C@H]1C(=O)O [Example 6]
- plasma glucose level after treatment (male db/db mice; [2]): almost the normal levels
- plasma triglyceride level after treatment (male db/db mice; [2]): almost the normal levels
- Decrease (%) in glucose level (male db/db mice; [3]): 59.9%
- Decrease (%) in triglyceride (male db/db mice; [3]): 77.1%
- Decrease (%) in glucose level (male db/db mice; [4]): 64.4%
- Decrease (%) in triglyceride (male db/db mice; [4]): 78.8%
- body weight, difference from control group (6-week-old male SD rats): no significant difference
- erythrocyte count, difference from control group (6-week-old male SD rats): no significant difference
- hematocrit value, difference from control group (6-week-old male SD rats): no significant difference
- total blood volume, difference from control group (6-week-old male SD rats): no significant difference
- weight of the heart, difference from control group (6-week-old male SD rats): no significant difference
- weight of the liver, difference from control group (6-week-old male SD rats): no significant difference
- weight of white fat around the epididymides, difference from control group (6-week-old male SD rats): no significant difference
- ALT (GPT), difference from control group (6-week-old male SD rats; serum): no significant difference
- AST (GOT), difference from control group (6-week-old male SD rats; serum): no significant difference
- Decrease (%) in glucose level (male KK-A^y mice): 45.9%
- Decrease (%) in triglyceride (male KK-A^y mice): 45.7%
- body weight, difference from control group [1]: no significant difference
- erythrocyte count, difference from control group [1]: no significant difference
- hematocrit value, difference from control group [1]: no significant difference
- total blood volume, difference from control group [1]: no significant difference
- weight of the heart, difference from control group [1]: no significant difference
- weight of the liver, difference from control group [1]: no significant difference
- weight of white fat around the uterus, difference from control group [1]: no significant difference
- ALT (GPT), difference from control group ([1]; serum): no significant difference
- AST (GOT), difference from control group ([1]; serum): no significant difference

SMILES: CC(C)(C)N.CC=CC=CC(=O)N1Cc2cc(OCCc3nc(-c4ccc(C(C)(C)C)cc4)oc3C)ccc2C[C@H]1C(=O)O [Example 16, tert-butylamine 7-{2-[2-(4-tert-butylphenyl)-5-methyloxazol-4-yl]ethoxy}-2-(2,4-hexadienoyl)-1,2,3,4-tetrahydroisoquinoline-(3S)-carboxylate]
- Decrease (%) in glucose level (male KK-A^y mice): 60.9%
- Decrease (%) in triglyceride (male KK-A^y mice): 73.4%
